Earlier results on 1 compound are cited in patent US10028918B2, “Nanoparticle delivery vehicle for S-nitroso-N-acetyl cysteine and uses thereof” (ALBERT EINSTEIN COLLEGE OF MEDICINE, INC., priority 2012, dated 2018).

For the series, the system named is rats. Conditions: normal and acute hypertension induced rats.

Structures are written as SMILES.

With `CC(=O)N[C@@H](CSN=O)C(=O)O` [NAC-SNO, S-nitroso-N-acetyl cysteine], the “Duration of vascular effect” value is ~9 min.
